Data on 14 compounds can be found in patent US9975885B2, “Broad-spectrum non-covalent coronavirus protease inhibitors” (priority 2016, dated 2018).

The structures appear in SMILES notation. Marks after values point to notes of the source that are not given here. A value given as a limit tells only on which side of the number the result lay.

One test has as its target FIPV-3CL^pro (Feline coronavirus (strain FIPV WSU-79/1146) (FCoV), UniProt Q98VG9). Put plainly: biochemical.
In a further test the target is PEDV-3CL^pro (Porcine epidemic diarrhea virus (strain CV777) (PEDV), UniProt P0C6Y4). Put plainly: biochemical.
Chain of PEDV-3CL^pro (P0C6Y4 2998-3299 limits assumed): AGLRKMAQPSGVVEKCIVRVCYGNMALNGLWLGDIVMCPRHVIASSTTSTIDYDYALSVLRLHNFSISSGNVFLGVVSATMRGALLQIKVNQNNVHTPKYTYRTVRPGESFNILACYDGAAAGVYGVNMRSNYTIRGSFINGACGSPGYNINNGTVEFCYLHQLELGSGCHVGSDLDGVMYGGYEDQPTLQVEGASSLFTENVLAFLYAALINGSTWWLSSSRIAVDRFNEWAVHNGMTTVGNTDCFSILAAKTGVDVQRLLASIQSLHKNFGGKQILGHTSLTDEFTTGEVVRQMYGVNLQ
The next test concerns the target NL63-3CL^pro (Human coronavirus NL63 (HCoV-NL63), UniProt P0C6X5). Put plainly: biochemical.
Another test concerns the target HKU1-3CL^pro (Human coronavirus HKU1 (isolate N1) (HCoV-HKU1), UniProt P0C6X2). Put plainly: biochemical.
The target of a further test is OC43-3CL^pro (Human coronavirus OC43 (HCoV-OC43), UniProt P0C6X6). It counts as biochemical.
Chain of OC43-3CL^pro (P0C6X6 3247-3549 limits assumed): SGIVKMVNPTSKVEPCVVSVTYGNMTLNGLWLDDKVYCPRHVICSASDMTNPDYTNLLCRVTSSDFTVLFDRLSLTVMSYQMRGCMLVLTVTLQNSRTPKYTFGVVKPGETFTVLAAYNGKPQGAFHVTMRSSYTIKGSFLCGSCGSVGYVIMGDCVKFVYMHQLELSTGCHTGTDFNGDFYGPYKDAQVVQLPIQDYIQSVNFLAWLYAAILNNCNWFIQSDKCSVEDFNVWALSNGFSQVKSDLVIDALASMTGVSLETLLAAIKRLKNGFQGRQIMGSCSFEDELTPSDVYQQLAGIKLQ
Another test addresses SARS-3CL^pro (Severe acute respiratory syndrome coronavirus (SARS-CoV), UniProt P0C6X7). The class given is biochemical.
The target of the next test is HKU4-3CL^pro (Bat coronavirus HKU4 (BtCoV) (BtCoV/HKU4/2004), UniProt P0C6W3). The class given is biochemical.
Chain of HKU4-3CL^pro (P0C6W3 3292-3597 limits assumed): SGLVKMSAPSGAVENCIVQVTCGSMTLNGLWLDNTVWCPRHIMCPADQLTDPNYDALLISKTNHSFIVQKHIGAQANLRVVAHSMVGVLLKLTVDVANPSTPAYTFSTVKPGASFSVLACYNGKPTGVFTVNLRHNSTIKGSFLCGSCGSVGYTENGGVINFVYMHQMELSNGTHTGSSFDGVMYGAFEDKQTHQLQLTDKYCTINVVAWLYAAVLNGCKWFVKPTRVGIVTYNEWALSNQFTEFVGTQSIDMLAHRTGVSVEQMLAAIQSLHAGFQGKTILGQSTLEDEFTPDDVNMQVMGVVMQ
Another test addresses HKU5-3CL^pro (Bat coronavirus HKU5 (BtCoV) (BtCoV/HKU5/2004), UniProt P0C6W4). The class given is biochemical.
Test [1] deals with Ten CoV 3CL^pro's (FIPV-, PEDV-, NL63-, HKU1-, OC43-, SARS-, HKU4-, HKU5-, HKU9-, IBV-3CL^pro). It counts as biochemical, coronaviruses (α-, β-, γ-CoV).

Chain of NL63-3CL^pro (P0C6X5 2940-3242 limits assumed): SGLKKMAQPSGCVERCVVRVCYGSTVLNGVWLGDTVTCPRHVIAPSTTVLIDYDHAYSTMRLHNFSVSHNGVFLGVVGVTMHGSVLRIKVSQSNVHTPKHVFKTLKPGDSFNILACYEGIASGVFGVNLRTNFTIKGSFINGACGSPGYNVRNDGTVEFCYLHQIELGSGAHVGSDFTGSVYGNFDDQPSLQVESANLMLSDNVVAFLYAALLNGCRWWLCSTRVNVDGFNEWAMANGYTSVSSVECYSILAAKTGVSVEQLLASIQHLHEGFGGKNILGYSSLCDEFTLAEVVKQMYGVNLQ
Chain of HKU5-3CL^pro (P0C6W4 3339-3644 limits assumed): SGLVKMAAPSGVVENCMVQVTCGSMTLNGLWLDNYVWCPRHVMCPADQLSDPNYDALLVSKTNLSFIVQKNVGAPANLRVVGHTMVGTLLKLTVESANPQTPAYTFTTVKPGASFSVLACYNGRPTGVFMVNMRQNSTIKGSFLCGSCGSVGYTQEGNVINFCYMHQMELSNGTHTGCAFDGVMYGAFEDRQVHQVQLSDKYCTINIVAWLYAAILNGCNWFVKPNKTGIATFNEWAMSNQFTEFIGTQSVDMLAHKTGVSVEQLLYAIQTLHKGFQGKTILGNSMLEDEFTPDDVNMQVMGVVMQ
Chain of FIPV-3CL^pro (Q98VG9 2904-3205 limits assumed): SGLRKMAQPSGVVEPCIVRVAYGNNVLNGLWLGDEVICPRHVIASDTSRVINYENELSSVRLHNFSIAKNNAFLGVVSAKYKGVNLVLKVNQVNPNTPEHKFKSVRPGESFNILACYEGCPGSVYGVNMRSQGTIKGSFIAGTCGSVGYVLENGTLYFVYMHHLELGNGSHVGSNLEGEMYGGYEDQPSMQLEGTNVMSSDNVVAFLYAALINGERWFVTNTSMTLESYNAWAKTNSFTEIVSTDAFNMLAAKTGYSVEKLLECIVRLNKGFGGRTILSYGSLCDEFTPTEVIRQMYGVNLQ
Chain of HKU1-3CL^pro (P0C6X2 3335-3637 limits assumed): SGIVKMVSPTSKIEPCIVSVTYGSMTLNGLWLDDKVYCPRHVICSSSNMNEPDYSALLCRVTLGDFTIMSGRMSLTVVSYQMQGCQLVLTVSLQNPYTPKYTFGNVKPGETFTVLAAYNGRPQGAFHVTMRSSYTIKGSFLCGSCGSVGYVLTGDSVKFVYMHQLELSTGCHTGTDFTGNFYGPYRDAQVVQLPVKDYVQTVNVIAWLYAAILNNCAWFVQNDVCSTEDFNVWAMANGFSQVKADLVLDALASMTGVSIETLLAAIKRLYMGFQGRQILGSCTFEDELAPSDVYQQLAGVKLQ

Take `CC(C)(C)c1ccc(N(C(=O)c2c[nH]cn2)C(C(=O)NC2CC2)c2cccnc2)cc1` (centres unmarked) [Compound 46, N-(4-(tert-butyl)phenyl)-N-(2-(cyclopropylamino)-2-oxo-1-(pyridin-3-yl)ethyl)-1H-imidazole-4-carboxamide]: the IC50 stood at 43.9 ± 6.1 µM against FIPV-3CL^pro; 4.3 ± 0.4 µM against PEDV-3CL^pro; 16.8 ± 2.9 µM at NL63-3CL^pro; 7.8 ± 1.2 µM on HKU1-3CL^pro; 24.5 ± 4.3 µM on OC43-3CL^pro; 11.8 ± 1.6 µM on SARS-3CL^pro. The IC50 at HKU4-3CL^pro is 11.2 ± 1 µM; at HKU5-3CL^pro, 8.9 ± 0.9 µM. Besides, in test [1], the “Score (performance metric score)” value turned out to be 4.0.
In the case of `CC(C)(C)NC(=O)C(c1cccnc1)N(C(=O)c1c[nH]cn1)c1ccc(C2CC2)cc1` (centres unmarked) [Compound 39, N-(2-(tert-butylamino)-2-oxo-1-(pyridin-3-yl)ethyl)-N-(4-cyclopropylphenyl)-1H-imidazole-4-carboxamide], the IC50 at PEDV-3CL^pro was determined as 17.6 ± 2.6 µM; against HKU1-3CL^pro it was 2 ± 1.1 µM; on SARS-3CL^pro, 12.7 ± 2.5 µM; against HKU4-3CL^pro it was 16.6 ± 1.7 µM; against HKU5-3CL^pro, 15.7 ± 2 µM. Further, the “Gini Coefficient” value in test [1] is listed as 0.19. Also, the “Score (performance metric score)” value in test [1] is recorded as 7.6. The “number of 3CL^pro's inhibited” value in test [1] is recorded as “five out of ten”.
Regarding `CC(C)(C)NC(=O)C(c1cccnc1)N(C(=O)c1c[nH]cn1)c1ccc(C2CCCC2)cc1` (centres unmarked) [Compound 41, N-(2-(tert-butylamino)-2-oxo-1-(pyridin-3-yl)ethyl)-N-(4-cyclopentylphenyl)-1H-imidazole-4-carboxamide], the IC50 against FIPV-3CL^pro was found to be 18.7 ± 2 µM; at PEDV-3CL^pro it was 10.5 ± 0.9 µM; on HKU1-3CL^pro, 5 ± 0.6 µM; against SARS-3CL^pro, 5.3 ± 0.5 µM; at HKU4-3CL^pro, 19.8 ± 1.5 µM; at HKU5-3CL^pro, 19.1 ± 2 µM. Besides, in test [1], the “Gini Coefficient” value worked out at 0.26. Besides, the “Score (performance metric score)” value in test [1] is listed as 6.2.
Regarding `O=C(Nc1ccc(N(C(=O)Cn2nnc3ccccc32)C(C(=O)NCc2ccccc2)c2ccsc2)cc1)C1CC1` (centres unmarked) [Compound 37, N-(4-(2-(1H-benzo[d][1,2,3]triazol-1-yl)-N-(2-(benzylamino)-2-oxo-1-(thiophen-3-yl)ethyl)acetamido)phenyl)cyclopropanecarboxamide], the IC50 on NL63-3CL^pro amounted to 3 ± 0.3 µM; against OC43-3CL^pro, 2.2 ± 0.2 µM; against SARS-3CL^pro it was 2 ± 0.2 µM; at HKU4-3CL^pro, 0.6 ± 0.04 µM; against HKU5-3CL^pro, 0.8 ± 0.1 µM. Also, the “Score (performance metric score)” value in test [1] is reported as 5.3*.
For the compound `CC(C)C(=O)Nc1ccc(N(C(=O)Cn2nnc3ccccc32)C(C(=O)NCc2cccnc2)c2cccc(F)c2)cc1` (centres unmarked) [Compound 6, N-(4-(2-(1H-benzo[d][1,2,3]triazol-1-yl)-N-(1-(3-fluorophenyl)-2-oxo-2-((pyridin-3-ylmethyl)amino)ethyl)acetamido)phenyl)isobutyramide], the IC50 amounted to 13.8 ± 1.1 µM at FIPV-3CL^pro; 8.3 ± 1.2 µM against PEDV-3CL^pro; 6.8 ± 1.9 µM on HKU1-3CL^pro; 10 ± 1.9 µM against OC43-3CL^pro; 5.5 ± 0.7 µM on SARS-3CL^pro; 2 ± 0.1 µM against HKU4-3CL^pro. On HKU5-3CL^pro, this compound displayed an IC50 of 2.5 ± 0.2 µM. Also, the inhibition at 100 µM at PEDV-3CL^pro (read-out: inhibition of PEDV-3CL^pro) and on HKU1-3CL^pro (read-out: inhibition of HKU1-3CL^pro) was greater than 50% each time.
Take `O=C(Nc1ccc(N(C(=O)Cn2nnc3ccccc32)C(C(=O)NC2CCCC2)c2ccsc2)cc1)C1CC1` (centres unmarked) [Compound 33, N-(4-(2-(1H-benzo[d][1,2,3]triazol-1-yl)-N-(2-(cyclopentylamino)-2-oxo-1-(thiophen-3-yl)ethyl)acetamido)phenyl)cyclopropanecarboxamide]: the IC50 worked out at 3.7 ± 0.6 µM on NL63-3CL^pro; 7.3 ± 0.8 µM against OC43-3CL^pro; 4.2 ± 0.6 µM on SARS-3CL^pro; 0.5 ± 0.05 µM against HKU4-3CL^pro; 0.6 ± 0.1 µM at HKU5-3CL^pro. Further, on HKU1-3CL^pro, the “inhibition of HKU1-3CL^pro” value is given as “not tolerated”. Moreover, in test [1], the “Gini Coefficient” value came out at 0.32. Moreover, the “Score (performance metric score)” value in test [1] is given as 5.7*.
On to `O=C(Nc1ccc(N(C(=O)Cn2nnc3ccccc32)C(C(=O)NC2CC2)c2ccsc2)cc1)C1CC1` (centres unmarked) [Compound 32, N-(4-(2-(1H-benzo[d][1,2,3]triazol-1-yl)-N-(2-(cyclopropylamino)-2-oxo-1-(thiophen-3-yl)ethyl)acetamido)phenyl)cyclopropanecarboxamide], for which the IC50 against NL63-3CL^pro is 14.8 ± 1.2 µM; on HKU1-3CL^pro it was 9.8 ± 1.8 µM; against OC43-3CL^pro, 2.8 ± 0.2 µM; on SARS-3CL^pro, 8.2 ± 1.5 µM; on HKU4-3CL^pro, 0.8 ± 0.1 µM; on HKU5-3CL^pro it was 0.9 ± 0.1 µM. In addition, the “Score (performance metric score)” value in test [1] was 5.0*. Further, the “number of 3CL^pro's inhibited” value in test [1] is “six”.
Consider `COc1cccc(C(C(=O)NCc2ccccc2)N(C(=O)Cn2nnc3ccccc32)c2ccc(NC(=O)C(C)C)cc2)c1` (centres unmarked) [Compound 14, N-(4-(2-(1H-benzo[d][1,2,3]triazol-1-yl)-N-(2-(benzylamino)-1-(3-methoxyphenyl)-2-oxoethyl)acetamido)phenyl)isobutyramide], for which, at HKU1-3CL^pro, inhibition was half-maximal at 1.8 ± 0.3 µM (IC50) and the “IC50 HKU1” value is listed as “low micromolar”. In addition, at SARS-3CL^pro, half-maximal inhibition (IC50) was put at 3.5 ± 0.4 µM and the “IC50 SARS” value was “low micromolar”. On HKU4-3CL^pro, the IC50 turned out to be 2.4 ± 0.2 µM and the “IC50 HKU4” value is “low micromolar”. On HKU5-3CL^pro, half-maximal inhibition (IC50) was put at 2.2 ± 0.3 µM and the “IC50 HKU5” value is given as “low micromolar”. For the same compound, in [1], the “Gini Coefficient” value stood at 0.33 and the “Score (performance metric score)” value is 6.6.
On to `O=C(Nc1ccc(N(C(=O)Cn2nnc3ccccc32)C(C(=O)NCc2cccnc2)c2ccsc2)cc1)C1CC1` (centres unmarked) [Compound 34, N-(4-(2-(1H-benzo[d][1,2,3]triazol-1-yl)-N-(2-oxo-2-((pyridin-3-ylmethyl)amino)-1-(thiophen-3-yl)ethyl)acetamido)phenyl)cyclopropanecarboxamide], for which the concentration for half-maximal inhibition (IC50) stood at 27.5 ± 3.8 µM at FIPV-3CL^pro; 15.6 ± 1.3 µM against NL63-3CL^pro; 7.4 ± 1.1 µM against HKU1-3CL^pro; 8.9 ± 0.5 µM against OC43-3CL^pro; 9.9 ± 0.9 µM against SARS-3CL^pro; 2.1 ± 0.2 µM on HKU5-3CL^pro.
With `CC(C)NC(=O)C(c1ccsc1)N(C(=O)Cn1nnc2ccccc21)c1ccc(NC(=O)C2CC2)cc1` (centres unmarked) [Compound 29, N-(4-(2-(1H-benzo[d][1,2,3]triazol-1-yl)-N-(2-(isopropylamino)-2-oxo-1-(thiophen-3-yl)ethyl)acetamido)phenyl)cyclopropanecarboxamide], the IC50 came out at 8.1 ± 1.6 µM on NL63-3CL^pro; 11.1 ± 1.2 µM against OC43-3CL^pro; 8.3 ± 1.5 µM against SARS-3CL^pro; 2 ± 0.2 µM against HKU4-3CL^pro; 2.4 ± 0.3 µM on HKU5-3CL^pro. In addition, in test [1], the “Score (performance metric score)” value is reported as 6.3*.
As to `O=C(Nc1ccc(N(C(=O)Cn2nnc3ccccc32)C(C(=O)NC2CCCCC2)c2ccsc2)cc1)C1CC1` (centres unmarked) [Compound 67, N-(4-(2-(1H-benzo[d][1,2,3]triazol-1-yl)-N-(2-(cyclohexylamino)-2-oxo-1-(thiophen-3-yl)ethyl)acetamido)phenyl)cyclopropanecarboxamide], on NL63-3CL^pro, the “inhibition of NL63-3CL^pro” value is on record as “not tolerated”. Besides, on OC43-3CL^pro, the “inhibition of OC43-3CL^pro” value is listed as “not tolerated”. Further, the “inhibition of SARS-3CL^pro” value against SARS-3CL^pro was “not tolerated”. In addition, on HKU4-3CL^pro, half-maximal inhibition (IC50) was put at 0.7 ± 0.1 µM and the “IC50 HKU4” value is “sub-micromolar”. In addition, on HKU5-3CL^pro, the IC50 amounted to 0.6 ± 0.1 µM and the “IC50 HKU5” value is recorded as “sub-micromolar”. Besides, in test [1], the “Gini Coefficient” value is 0.39 and the “Score (performance metric score)” value is 8.3*.
As to `CC(C)C(=O)Nc1ccc(N(C(=O)Cn2cnc3ccccc32)C(C(=O)NCc2ccccc2)c2cccc(F)c2)cc1` (centres unmarked) [Compound 19, N-(4-(2-(1H-benzo[d]imidazol-1-yl)-N-(2-(benzylamino)-1-(3-fluorophenyl)-2-oxoethyl)acetamido)phenyl)isobutyramide], the IC50 on HKU1-3CL^pro was 3.7 ± 0.6 µM; against OC43-3CL^pro it was 3.9 ± 0.4 µM; against HKU4-3CL^pro it was 2.5 ± 0.2 µM; on HKU5-3CL^pro, 2.9 ± 0.3 µM. Moreover, the “Gini Coefficient” value in test [1] stood at 0.31. Moreover, in test [1], the “Score (performance metric score)” value came to 6.8.
On to `CC(C)(C)NC(=O)C(c1ccsc1)N(C(=O)Cn1cnc2ccccc21)c1ccc(NC(=O)C2CC2)cc1` (centres unmarked) [Compound 27, N-(4-(2-(1H-benzo[d]imidazol-1-yl)-N-(2-(tert-butylamino)-2-oxo-1-(thiophen-3-yl)ethyl)acetamido)phenyl)cyclopropanecarboxamide], for which the IC50 is 16.3 ± 2.1 µM at OC43-3CL^pro, 9.6 ± 1 µM against HKU4-3CL^pro and 9.7 ± 1.6 µM on HKU5-3CL^pro. Moreover, the “Gini Coefficient” value in [1] was found to be 0.37. Further, in test [1], the “Score (performance metric score)” value was determined as 11.0.
Turning to `CC(C)(C)NC(=O)C(c1cccnc1)N(C(=O)c1c[nH]cn1)c1ccc(C2CCCCC2)cc1` (centres unmarked) [Compound 42, N-(2-(tert-butylamino)-2-oxo-1-(pyridin-3-yl)ethyl)-N-(4-cyclohexylphenyl)-1H-imidazole-4-carboxamide], the IC50 at FIPV-3CL^pro turned out to be 39.7 ± 5.7 µM; against PEDV-3CL^pro, 26.2 ± 2.4 µM; against HKU1-3CL^pro, 11.6 ± 1.5 µM; against OC43-3CL^pro, 63.1 ± 12 µM; on SARS-3CL^pro it was 6.3 ± 0.5 µM; against HKU4-3CL^pro it was 27 ± 4.1 µM. The compound also came in with an IC50 on HKU5-3CL^pro of 4.3 ± 1 µM. In [1], the “Gini Coefficient” value came to 0.18. For the same compound, in [1], the “Score (performance metric score)” value is on record as 6.6.

In general, IC50 refers to the concentration that gives 50% inhibition. A low value points to greater potency in that assay. In general, inhibition refers to the relative decrease from the control value, in per cent.
